The source of these data is PubChem BioAssay (NCI).

Holding throughout (test): NCI-60 cell line screen, 48 h
Assay [1] concerns ACHN renal.
Assay [2] concerns CAKI-1 renal.
Assay [3] concerns HCT-116 colon.
Assay [4] relates to HOP-92 NSCLC.
The subject of assay [5] is HS 578T breast.
The subject of assay [6] is IGROV1 ovarian.
Assay [7] deals with M14 melanoma.
Assay [8] relates to NCI-H226 lung.
For assay [9], the system named is NCI-H460 lung.
In assay [10] the test system is SR leukemia.

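How tested: cells in 96-well plates exposed to compound for 48 hours at five concentrations. The concentration for full growth arrest is given as TGI.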 Some results are limits rather than exact numbers.

Consider `COc1ccc(/[N+]([O-])=C/c2ccccc2OC(=S)S)cc1`, for which the TGI in assay [1] was over 100 µM; in assay [2] it was over 100 µM; in assay [3], 73.5 µM; in assay [4], 64.4 µM; in [5], over 100 µM; in assay [6], over 100 µM. Also, the TGI is 91.5 µM in assay [7], over 100 µM in assay [8], over 100 µM in assay [9] and over 100 µM in assay [10].

As for `O=C1C[C@@]23CCC4(CC2=CCC[C@H]3O1)OCCO4`, the TGI in assay [1], in [2], in assay [3], in [4], in [5] and in [6] was over 100 µM throughout. Moreover, the TGI in assay [7], in assay [8], in assay [9] and in assay [10] was over 100 µM throughout.

For the compound `COc1cc(CC2C(=O)OCC2Cc2ccc(OC)c(OC)c2)ccc1O` (stereo not given), the TGI in assay [1], in assay [2], in [3], in [4], in [5] and in [6] was over 100 µM in each case. For the same compound, the TGI in assay [7], in assay [8], in [9] and in [10] was over 100 µM in each case.

As for `CC(=O)CC(=O)N1CCOC1=O`, the TGI in [1], in assay [2], in [3], in assay [4], in assay [5] and in [6] was over 10 µM each time. Besides, the TGI in [7], in assay [8], in assay [9] and in [10] was over 10 µM in each case.

As for `COc1ccc(NC(=S)Nc2cccc(C)n2)cc1`, the TGI in [1], in [2], in assay [3], in assay [4], in assay [5] and in assay [6] was over 100 µM each time. Further, the TGI in [7], in assay [8], in assay [9] and in [10] was over 100 µM throughout.

Regarding `CCc1n[nH]c(=O)n1-c1ccncc1`, the TGI in [1], in [2], in assay [3], in assay [4], in assay [5] and in assay [6] was over 100 µM each time. Further, the TGI in assay [7], in assay [8], in assay [9] and in assay [10] was over 100 µM each time.

Consider `CC(C)(C)OC(=O)NCCCCC1NC(=O)[C@@H]2Cc3c([nH]c4ccccc34)C(c3ccccc3)N2C1=O` (stereo not given in full), for which the TGI is over 100 µM in assay [1]; over 100 µM in assay [2]; over 100 µM in assay [3]; 85.1 µM in [4]; 49.6 µM in assay [5]; over 100 µM in [6]. In addition, the TGI in [7] was 92.3 µM; in assay [8] it was over 100 µM; in assay [9], over 100 µM; in assay [10], 62.8 µM.
